We go through six compounds from patent US20220127263A1, “Novel Compounds for the Treatment, Alleviation or Prevention of Disorders Associated with Tau Aggregates” (AC Immune SA, priority 2019, published 2022).

Series [1] in a line: CSF/Plasma ratio determination, in-vivo pharmacokinetics mouse p.o. Also noted: species or system CD-1 male mice. The following applies: for CSF/plasma AUC ratio / AUC(0-t): male, CD-1, po; for AUC(0-t): plasma, read-out: Plasma AUC0-last. As for the experimental part: CSF/Plasma Ratio Determination
Test compounds were administered to CD-1 male mice as a single oral dose of 10 or 20 mg/kg of a homogenous suspension (10 mL/kg, 1 or 2 mg/mL in 0.5% CMC (w/v) in water) by gavage using a plastic syringe fitted with a metal gavage tube. Terminal blood, brain and CSF samples were collected from three animals at several time points, typically at 2, 4, 8 and 24 h post-dose.
Blood samples were transferred into 1.5-mL plastic tubes containing K2-EDTA (0.5M, 3 uL) as an anti-coagulant and placed on wet ice, and were then processed to obtain plasma by centrifugation at approximately 5° C. (3000 g, 15 min) within 30 min after collection. An aliquot of 10 μL sample was protein precipitated with 150 μL IS, the mixture was vortex-mixed well and centrifuged at 13000 rpm for 10 min, 4° C. 30 μL supernatant was then mixed with 30 μL water, vortex-mixed well and centrifuged at 4° C. 2 μL sample was injected for LC-MS/MS analysis.
The collected CSF was transferred to polypropylene microcentrifuge tubes. CSF samples were added with an equal volume of plasma. An aliquot of 6 μL sample was protein precipitated with 90 μL IS, the mixture was vortex-mixed well and centrifuged at 13000 rpm for 10 min, 4° C. 30 μL supernatant was then mixed with 30 μL water, vortex-mixed well and centrifuged at 4° C. 2 μL sample was injected for LC-MS/MS analysis.
Test substance concentration in plasma and CSF versus time data were analyzed by non-compartmental approaches; AUC0-last in plasma and CSF were calculated with the log-linear trapezoidal rule. CSF/Plasma ratio was calculated as follows:
AUC0-last(CSF)/AUC0-last(plasma)

The target of series [2] is T1, Tau K18 aggregates (Tau K18 fragment, amino acids 244 to 372 of human Tau441) (Homo sapiens, UniProt P10636).
T1 construct: encompassing amino acids 244 to 372 of the longest isoform (2N4R) of human Tau441; host or cells: bacteria
T1 sequence (P10636 561-689): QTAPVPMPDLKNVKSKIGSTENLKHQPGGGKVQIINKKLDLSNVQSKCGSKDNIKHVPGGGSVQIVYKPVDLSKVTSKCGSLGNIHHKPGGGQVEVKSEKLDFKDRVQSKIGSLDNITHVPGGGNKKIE
As to the kind of experiment: Tau K18 disaggregation assay by ThT. In kind it is biochemical. As to conditions: 2 μM K18 aggregates, 160 to 0.04 μM compound, 30 min RT, ThT fluorescence. How it is done:
Tau K18 Disaggregation Assay by ThT
The Tau K18 fragment, encompassing amino acids 244 to 372 of the longest isoform (2N4R) of human Tau441, was expressed in bacteria and purified or bought from SignalChem. For the K18 disaggregation assay by ThT, 35 μM of recombinant K18 in PBS were aggregated for 24 hours at 37° C. in presence of 50 μM of heparin (Sigma-Aldrich) and 10 mM of DTT (Sigma-Aldrich) under shaking at 750 RPM. Compounds were dissolved in anhydrous dimethyl sulfoxide (DMSO, Sigma-Aldrich) to reach a concentration of 10 mM. K18 aggregates and serial dilutions of compounds were mixed together in PBS (volume 50 μL) to a final concentration of 2 μM of K18 aggregates and from 160 to 0.04 μM of compounds. The mixture was incubated for 30 minutes at room temperature (RT), then 40 μL of this mixture were transferred into a black 384-well plate assay (Perkin-Elmer) and mixed with 10 μL of 100 μM ThT in 250 mM glycine (both from Sigma-Aldrich) in PBS. Fluorescence (relative fluorescence units; RFU) was measured in monoplicate or duplicate on a Tecan reader (excitation: 440 nm; emission: 485 nm). Percentage of K18 disaggregation was then calculated and half maximal effective concentration (EC50) was determined using GraphPad Prism version 5 (GraphPad Software) assuming a one-binding site fitting model.

Series [3] concerns the target T2, full-length Tau (flTau, 2N4R) aggregates (Homo sapiens, UniProt P10636).
T2 construct: 35 μM of recombinant full-length (fl)Tau in PBS were aggregated; made in house; host or cells: bacteria
As to the kind of experiment: Tau disaggregation assay by DLS (dynamic light scattering). The class given is biochemical. As to conditions: 2 μM flTau aggregates, 20 μM compound, 60 min RT. As for the experimental part:
Tau disaggregation assay by DLS (dynamic light scattering)
The longest isoform of human Tau (2N4R; 441 amino acids) was expressed in bacteria. For the Tau disaggregation assay by DLS, 35 μM of recombinant full-length (fl)Tau in PBS were aggregated for 24 h at 37° C. in presence of 50 μM of heparin (Sigma-Aldrich) and 10 mM of DTT (Sigma-Aldrich) under shaking at 750 RPM. Morphomers™ were dissolved in DMSO (Sigma-Aldrich) to reach a concentration of 10 mM. flTau aggregates and compounds were mixed together in PBS (volume 80 μL) to a final concentration of 2 μM of flTau aggregates and 20 μM of Morphomers™. The mixture was incubated for 60 min at RT. Then […] of solution was transferred into a 40 μl cuvette (Malvern) and the size of flTau aggregates was measured with a Zetasizer Nano (Malvern) at an angle of 173° with 3 runs of 5 times 15 sec each. Number of events were taken into consideration to assess size of flTau aggregates. Percentage of disaggregation was then measured using the dynamic range between flTau monomers and flTau aggregates.

Setting [4] is: 20 mg/kg, AUC0-last(CSF)/AUC0-last(plasma).

The structures appear in SMILES notation. Read-outs that look alike come from different tables or passages of the source.

T2 sequence (P10636 1-441 isoform P10636-8): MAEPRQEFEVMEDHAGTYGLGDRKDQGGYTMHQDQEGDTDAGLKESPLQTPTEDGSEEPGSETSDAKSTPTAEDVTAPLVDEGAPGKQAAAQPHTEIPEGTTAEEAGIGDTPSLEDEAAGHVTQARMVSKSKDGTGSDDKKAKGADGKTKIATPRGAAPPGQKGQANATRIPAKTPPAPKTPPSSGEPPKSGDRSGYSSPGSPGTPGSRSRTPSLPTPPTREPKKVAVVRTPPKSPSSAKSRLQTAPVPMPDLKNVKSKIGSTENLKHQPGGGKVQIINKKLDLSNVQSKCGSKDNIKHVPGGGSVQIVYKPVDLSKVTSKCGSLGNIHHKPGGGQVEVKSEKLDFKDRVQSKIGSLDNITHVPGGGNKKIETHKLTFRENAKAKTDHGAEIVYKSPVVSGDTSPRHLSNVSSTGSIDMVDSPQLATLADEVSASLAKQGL

The term EC50 denotes the concentration that produces a half-maximal response. Higher therefore signals weaker potency. On to `Fc1ccc2[nH]c3c(c2c1)CN(c1ccc2oc(N4CCOCC4)nc2c1)CC3` [Comparative Example 1], for which, in series [1] (20 mg/kg), the “CSF AUC0-last” value is 121.03 ng·h/mL and the AUC(0-t) came out at 17400 ng·h/mL. In addition, in series [1] (setting [4]), the CSF/plasma AUC ratio came to 0.007. In series [2], this compound yielded an EC50 of less than 10 µM.

Regarding `c1ccc2c3c([nH]c2c1)CCN(c1ccc2oc(N4CCOCC4)nc2c1)C3` [Example 1], in series [1] (setting [4]), the CSF/Plasma ratio result is recorded as “highest CSF/plasma ratio” and the CSF/plasma AUC ratio was 0.014. Moreover, in series [1] (20 mg/kg), the “CSF AUC0-last” value worked out at 327.0 ng·h/mL and the AUC(0-t) was 23700 ng·h/mL. In addition, the “DLS % Percentage of disaggregation (flTau)” value in series [3] is recorded as 25%. Moreover, the EC50 in series [2] was less than 10 µM.

In series [2], `c1ccc2c3c([nH]c2c1)CCN(c1ccc2oc(N4CCOCC4)nc2n1)C3` [Example 5] gave an EC50 of less than 10 µM.

Turning to `Fc1cccc2[nH]c3c(c12)CN(c1ccc2oc(N4CCOCC4)nc2c1)CC3` [Comparative Example 3], in series [1] (10 mg/kg), the “CSF AUC0-last” value worked out at 19.705 ng·h/mL and the AUC(0-t) amounted to 4590 ng·h/mL. Further, in series [1] (10 mg/kg, AUC0-last(CSF)/AUC0-last(plasma)), the CSF/plasma AUC ratio was found to be 0.004. The compound also showed an EC50 in series [2] of less than 10 µM.

Take `Fc1cccc2c3c([nH]c12)CCN(c1ccc2oc(N4CCOCC4)nc2c1)C3` [Comparative Example 4]: in series [1] (20 mg/kg), the “CSF AUC0-last” value was determined as 66.5 ng·h/mL and the AUC(0-t) stood at 14500 ng·h/mL. Also, the CSF/plasma AUC ratio in series [1] (setting [4]) was found to be 0.005. The compound also came in with an EC50 in series [2] of less than 10 µM.

With `Fc1ccc2c3c([nH]c2c1)CCN(c1ccc2oc(N4CCOCC4)nc2c1)C3` [Comparative Example 2], in series [1] (20 mg/kg), the “CSF AUC0-last” value worked out at 56.70 ng·h/mL and the AUC(0-t) worked out at 17800 ng·h/mL. Further, the CSF/plasma AUC ratio in series [1] (setting [4]) is 0.003. The EC50 in series [2] is less than 10 µM.
